Some test systems named below: 786-0; ACHN; CAKI-1; CCRF-CEM; HCT-15; K562; LOX IMVI; M14; MDA-N; NCI-H23; NCI-H522; NCI/ADR-RES; OVCAR-3; OVCAR-5; SK-OV-3; SN12C; SR; T47D; U-251.
Assay in all cases: NCI anticancer screen, dose series, 48 h

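1) Cells in 96-well plates. 2) Compound, 48 h, 5 concentrations. 3) Linear interpolation between surrounding doses. 4) Unreached endpoint = highest concentration. GI50: concentration for 50% inhibition of growth.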 Active and inactive are the calls of the source. No stated cut-off is given here; in the data, active = GI50 up to about 1.1 µM and inactive = higher. Square brackets hold non-standard residues; d marks the D form. Peptide text beside a SMILES is read from it. * marks the point of attachment. ξ: configuration not given here. NMeY = CN[C@@H](Cc1ccc(O)cc1)C(=O)O; Cbz = O=C(OCc1ccccc1)*; ξA = CC(N)C(=O)O

The values that follow come from ChEMBL document CHEMBL1201862, “PubChem BioAssay data set” (2004).

For `SC1=NC2=C(CSC/C2=C\c2ccccc2)C(c2ccccc2)N1` (configuration not stated), the GI50 with 786-0 is 34.2 µM (inactive); with ACHN, 49.7 µM (inactive); in the assay on CAKI-1, > 100 µM (inactive); in the assay with CCRF-CEM it was 36.6 µM (inactive); in the assay on HCT-15 it was 41.7 µM; with K562 it was 30.3 µM (inactive). In addition, the GI50 with LOX IMVI is 38.1 µM (inactive); in the assay with M14 it was 54.1 µM (inactive); in the assay with MDA-N, 31.3 µM (inactive); in the assay with NCI-H23, 31.9 µM (inactive); in the assay with NCI-H522, 59.4 µM (inactive); with NCI/ADR-RES, 47.5 µM (inactive). In addition, the GI50 was > 100 µM (inactive) with OVCAR-3; > 100 µM (inactive) in the assay on OVCAR-5; 92.7 µM (inactive) with SK-OV-3; 38.1 µM (inactive) with SN12C; 32.7 µM (inactive) with SR; 56.4 µM (inactive) with T47D. Moreover, in the assay on U-251, the GI50 was 35 µM (inactive).
Regarding `O=C1c2cc3c(cc2CC1Br)CCC3` (configuration not stated), the GI50 with 786-0 was 1.8 µM (inactive); with ACHN, 3.8 µM (inactive); in the assay with CAKI-1, 1.71 µM (inactive); in the assay on CCRF-CEM, 0.405 µM (active); with HCT-15 it was 1.96 µM; in the assay with K562, 1.39 µM (inactive). Moreover, the GI50 was 0.369 µM (active) in the assay on LOX IMVI; 1.45 µM (inactive) in the assay on M14; 1.82 µM (inactive) in the assay on MDA-N; 3 µM (inactive) in the assay on NCI-H23; 1.45 µM (inactive) in the assay with NCI-H522; 4.14 µM (inactive) in the assay with NCI/ADR-RES. In addition, the GI50 in the assay with OVCAR-3 was 2.03 µM (inactive); in the assay on OVCAR-5, 5.64 µM (inactive); with SK-OV-3 it was 7.73 µM (inactive); with SN12C it was 1.7 µM (inactive); with SR it was 0.787 µM (active); with T47D it was 2.39 µM (inactive). Besides, in the assay with U-251, the GI50 was 3.26 µM (inactive).
Consider `N=C(N)SCc1ccc(Cl)c2ccccc12.O=[N+]([O-])c1c(O)c(Cl)cc(Cl)c1Cl`, for which the GI50 was 11.3 µM (inactive) in the assay on 786-0; 12.5 µM (inactive) in the assay on ACHN; 5.57 µM (inactive) in the assay on CAKI-1; 9.59 µM (inactive) in the assay with CCRF-CEM; 14.3 µM with HCT-15; 4.66 µM (inactive) in the assay on K562. Moreover, the GI50 in the assay on LOX IMVI is 14.4 µM (inactive); in the assay on M14 it was 10.3 µM (inactive); in the assay with MDA-N, 11.1 µM (inactive); in the assay on NCI-H23, 12.9 µM (inactive); with NCI-H522, 4.56 µM (inactive); in the assay with NCI/ADR-RES, 17.9 µM (inactive). In addition, the GI50 with OVCAR-3 is 9.18 µM (inactive); in the assay on OVCAR-5 it was 13 µM (inactive); in the assay with SK-OV-3, 13.1 µM (inactive); with SN12C, 11.3 µM (inactive); in the assay with SR, 5.42 µM (inactive); in the assay with T47D, 4.19 µM (inactive). In addition, in the assay with U-251, the GI50 is 12.9 µM (inactive).
For `Cn1c(Sc2ccc(-c3cccnc3)n2C)ccc1-c1cccnc1`, the GI50 with 786-0 was 11.5 µM (inactive); with ACHN it was 20.2 µM (inactive); in the assay on CAKI-1, 19.1 µM (inactive); in the assay on CCRF-CEM it was 1.96 µM (inactive); in the assay with HCT-15, 16.8 µM; in the assay with K562 it was 3.12 µM (inactive). Further, the GI50 with LOX IMVI was 3.73 µM (inactive); in the assay on M14, 17.1 µM (inactive); with MDA-N, 8.57 µM (inactive); in the assay with NCI-H23, 16.7 µM (inactive); with NCI-H522, 10.3 µM (inactive); with NCI/ADR-RES, 21.8 µM (inactive). The GI50 in the assay on OVCAR-3 is 11.3 µM (inactive); in the assay with OVCAR-5, 22.9 µM (inactive); with SK-OV-3 it was 27.7 µM (inactive); in the assay on SN12C, 16.8 µM (inactive); in the assay on SR, 2.13 µM (inactive); with T47D it was 16.7 µM (inactive). Besides, the GI50 in the assay on U-251 is 13.1 µM (inactive).
Consider `CN(C)Cc1cc(/N=N/c2ccccc2)cc(CN(C)C)c1O`, for which the GI50 in the assay with 786-0 is 36.2 µM (inactive); in the assay with ACHN it was > 100 µM (inactive); in the assay with CAKI-1 it was > 100 µM (inactive); with CCRF-CEM, 32.3 µM (inactive); in the assay on HCT-15, 56.6 µM; in the assay with K562, 97.5 µM (inactive). Moreover, the GI50 in the assay with LOX IMVI was 47.2 µM (inactive); in the assay with M14, > 100 µM (inactive); with MDA-N, > 100 µM (inactive); in the assay on NCI-H23, > 100 µM (inactive); in the assay on NCI-H522, > 100 µM (inactive); with NCI/ADR-RES, 43 µM (inactive). Also, the GI50 in the assay on OVCAR-3 was 27.4 µM (inactive); in the assay with OVCAR-5, > 100 µM (inactive); in the assay on SK-OV-3 it was > 100 µM (inactive); with SN12C, > 100 µM (inactive); in the assay on SR, > 100 µM (inactive); in the assay on T47D, > 100 µM (inactive). The GI50 in the assay with U-251 is 99.1 µM (inactive).
On to `COc1ccc(C[C@@H](C(=O)N[C@@H](C)C(N)=O)N(C)C(=O)[C@@H]2CCCN2C(=O)[C@H](CC(C)C)NC(=O)C(C)NC(=O)OCc2ccccc2)cc1` (some centres not stated) (Cbz-[ξA]LP[NMeY](Me)A-NH2), for which the GI50 is > 100 µM (inactive) in the assay on 786-0; > 100 µM (inactive) with ACHN; > 100 µM (inactive) in the assay with CAKI-1; > 100 µM (inactive) in the assay on CCRF-CEM; over 100 µM in the assay on HCT-15; 84.3 µM (inactive) with K562. Also, the GI50 in the assay on LOX IMVI, in the assay on M14, in the assay with MDA-N, in the assay with NCI-H23, in the assay on NCI-H522 and in the assay on NCI/ADR-RES was > 100 µM (inactive) throughout. In addition, the GI50 in the assay with OVCAR-3, in the assay with OVCAR-5, in the assay with SK-OV-3, with SN12C, in the assay with SR and in the assay on T47D was > 100 µM (inactive) throughout. Moreover, the GI50 in the assay on U-251 was > 100 µM (inactive).
Regarding `COc1ccc(NS(=O)(=O)c2ccc3ncn(NS(=O)(=O)c4ccc(I)cc4)c(=O)c3c2)cc1`, the GI50 in the assay on 786-0 was > 100 µM (inactive); in the assay on ACHN it was > 100 µM (inactive); in the assay on CAKI-1 it was > 100 µM (inactive); in the assay with CCRF-CEM, 64.7 µM (inactive); with HCT-15, over 100 µM; in the assay with K562, 7.26 µM (inactive). For the same compound, the GI50 with LOX IMVI was 8.77 µM (inactive); in the assay with M14 it was > 100 µM (inactive); in the assay on MDA-N, > 100 µM (inactive); in the assay with NCI-H23 it was > 100 µM (inactive); in the assay on NCI-H522 it was > 100 µM (inactive); in the assay on NCI/ADR-RES, > 100 µM (inactive). Further, the GI50 in the assay on OVCAR-3 was > 100 µM (inactive); in the assay with OVCAR-5, > 100 µM (inactive); with SK-OV-3, > 100 µM (inactive); in the assay with SN12C it was > 100 µM (inactive); with SR, 72.9 µM (inactive); in the assay with T47D, > 100 µM (inactive). Moreover, the GI50 in the assay with U-251 is > 100 µM (inactive).
Consider `Fc1ccc(N2C(=S)SC(=N\c3ccccc3)/C2=N/c2ccccc2)cc1`, for which the GI50 in the assay on 786-0 was > 100 µM (inactive); in the assay with ACHN, > 74.5 µM (inactive); with CAKI-1, > 100 µM (inactive); in the assay with CCRF-CEM, 25.9 µM (inactive); with HCT-15, over 85.1 µM; with K562, 14.9 µM (inactive). The GI50 in the assay on LOX IMVI is > 100 µM (inactive); with M14 it was > 100 µM (inactive); with MDA-N, > 100 µM (inactive); in the assay with NCI-H23 it was > 71.9 µM (inactive); with NCI-H522 it was > 100 µM (inactive); with NCI/ADR-RES, > 92.7 µM (inactive). The GI50 with OVCAR-3 is 41.6 µM (inactive); in the assay on OVCAR-5 it was > 85.3 µM (inactive); in the assay with SK-OV-3, > 100 µM (inactive); in the assay with SN12C, > 100 µM (inactive); with SR, 25.1 µM (inactive); with T47D, 25.5 µM (inactive). In addition, the GI50 with U-251 is > 87.7 µM (inactive).
